# Reference: patent US12534696B2, “Systems and methods for immobilizing extracellular matrix material on organ on chip, multilayer microfluidics microdevices, and three-dimensional cell culture systems” (THE TRUSTEES OF THE UNIVERSITY OF PENNSYLVANIA, priority 2015, dated 2026)
# Tests used:
# [1] = test system: human lung fibroblasts; assay: Serum-induced fibrosis in the biomimetic five-layer lung fibrosis model; assay type: cell-based; conditions: 2 μM PP2 added to medium 24 hours after assembly and maintained; cells cultured in 2D with 2% serum, then 0.2% in the model
# [2] = test system: human lung fibroblasts; assay: Agent-induced injury (fibrotic response) in the five-layer biomimetic lung model; assay type: cell-based; conditions: SHH added exogenously at 500 ng/ml
# Description: In order to test whether the cells in the gel layer can be fed via the channels, one experiment was conducted with only cells in the gel layer (FIG. 39). In particular, human lung fibroblasts and THP-1 macrophage cells were included in the gel layer. The gel was created by adding collegen to physiological aqueous buffer. Additionally or alternatively, any aqueous buffer (e.g., phosphate buffered saline (PBS) buffer) can be used. The aqueous buffer can be kept at a concentration between 0.1 and 2 mg/ml and kept at 4° C. Human lung fibroblasts (100 K cells/ml) and THP-1 macrophage (50 K cells/ml) cells were added to the gel during the liquid phase. The side of the membranes facing the chamber slab (e.g. 242 and 251) were treated with sulfo-sanpah to promote collagen/ECM anchorage. The lower channel slab, lower membrane, and chamber slab were stacked. The gel was then pipetted into the chamber (e.g., 231). After the upper membrane and upper channel slab was placed on top, the biomimetic organ model was clamped and the biomimetic organ model was placed in the incubator at 37° C. The biomimetic organ model was incubated for five days. For continuous perfusion of culture medium at 200 μL/hr in each channel, FGM-2 can be used as the medium having a reduced serum (e.g., between 0-2% and 2%).
# In this study, the development of the organ injury model was examined. […]
Compound,effect on serum-induced fibrosis (FIG. 49) [1],induction of fibrotic response (FIG. 48) [2]
CC(C)(C)n1nc(-c2ccc(Cl)cc2)c2c(N)ncnc21 [PP2],reduced fibrosis,–
sonic hedgehog [SHH],–,a fibrotic response can be induced
